SMILES strings stand for the structures.

By melting point is commonly meant the temperature of the solid-liquid transition. `CC(C)[C@H](N)C(=O)N1CC(F)(F)C(F)(F)C1` [Example 5, (S)-2-Amino-3-methyl-1-(3,3,4,4-tetrafluoro-pyrrolidin-1-yl)-butan-1-one]: the melting point was in the range of 234 to 238 °C. To `N[C@H](C(=O)N1CC(F)(F)C(F)(F)C1)C1CCCCC1` [Example 3, (S)-2-Amino-2-cyclohexyl-1-(3,3,4,4-tetrafluoro-pyrrolidin-1-yl)-ethanone] belongs 278 °C.
